# System: benzodiazepine receptors
# Assay: in vivo displacement of 3H-flunitrazepam from brain benzodiazepine receptors
# Settings: female mice, intraperitoneal, 15 min before 3H-FNM i.v.; forebrain 20 min after 3H-FNM
# Source text: The pharmaceutical properties of the compounds of the invention can be illustrated by determining their capability for displacing radioactivity labelled flunitrazepam from benzodiazepine receptors.
# The displacement activity of the compounds of the invention may be found by determining the ED50 value. The ED50 value represents the dose (mg/kg) of a test substance which causes the specific binding of flunitrazepam to benzodiazepine receptors in a living brain to be reduced to 50% of the control value.
# Such an in vivo test is carried out as follow:
# Principle. Twenty minutes after a dose of ^3 H-flunitrazepam (^3 H-FNM) (200 μCi/kg, i.v.) the amount of specific ^3 H-FNM binding to brain benzodiazepine receptors has reached its maximum value.
# Test procedure. […] The amounts of radioactivity on the filters are determined by conventional scintillation counting. […]
# Results. The ED50 value is determined from dose response curves. If only one dose of test substance is administered the ED50 value is calculated as follows, provided that the inhibition of specific binding is within the range of 25-75%: [formula] where Co is specific binding in controls and Cx is specific binding in mice treated with test substance.
structure (smiles),measurement,value
c1ccc2c(c1)N1CCCC1c1c(-c3noc(C4CC4)n3)ncn1-2 (stereo not shown),in vivo ED50 (dose reducing specific 3H-flunitrazepam binding to brain benzodiazepine receptors to 50% of the control value),5.1 mg/kg

# Source: US4795749A, “Imidazopyrroloquinoxaline compounds” (A/S Ferrosan, priority 1985, dated 1989)
